According to patent US20260027096A1, “PHD INHIBITORS” (Oxford University Innovation Limited, priority 2023, published 2026):

Legend:
HIF1-α in Hep3B cells = experiment: Immunoblots of Hep3B cells; type: cell-based; details: 100 μM and 20 μM, 3 hours
Protocol: Example 159—Immunoblots of Hep3B cells treated with compounds of the invention Hep3B cells were treated with 117, 119, 122 and 123 of the invention (Examples 93, 95, 98 and 99) at 100 μM (A) and 20 μM (B) PHD inhibitors for 3 hours. The blots show protein levels of HIF1-α and β-actin at the 3rd hour after treatment.

PHD2 = PHD2 (Homo sapiens (Human), UniProt Q9GZT9); experiment: PHD2 RF-MS (RapidFire LC-MS) hydroxylation assay; type: biochemical
Protocol: In brief, cDNA encoding for the catalytic domain of tPHD2 (181-426 residues) was cloned into the pET28a (+)/pET24a (+) vectors (Novagen), to enable production of tPHD2 (residues 181-426) protein with/without an N-terminal His6-tag. The tPHD2 (residues 181-426) encoding construct was transformed into the Escherichia coli BL21 DE3 cell line; protein production was induced with 0.5 mM […] (3-5 hr at 28° C.). […] The protein was exchanged into 50 mM Tris-HCl buffer (pH 7.5) and concentrated to % 40 mg/ml.
Tris(hydroxymethyl)aminomethane was from Fisher. Ferrous ammonium sulfate (FAS), 2-oxoglutarate (2OG) and L-ascorbic acid were from Sigma Aldrich; solutions of these were prepared freshly each day. All inhibition assays were carried out in 384-well polypropylene plates (Greiner Bio-One). PHD2 assays were performed in assay buffer (50 mM Tris. Cl pH 7.5, 50 mM NaCl). […] The final assay concentration of DMSO was kept constant at 0.5%. PHD2 protein was prepared at a concentration of 300 nM in assay buffer and 25 μl dispensed across each 384-well assay plate. The PHD2 solution was allowed to equilibrate with the inhibitors for 15 minutes at room temperature; the enzyme reaction then initiated by dispense of 25 μl of substrate (20 μM FAS, 200 µM L-ascorbic acid, 10 μM CODD peptide and 20 μM 2OG in the assay buffer. Enzyme reactions were allowed to proceed for 20 minutes at room temperature and the reaction terminated by addition of 10% formic acid (5 μl). Assay plates were then transferred to a RapidFire RF360 sampling robot (Agilent) connected to an Agilent 6530 accurate mass quadrupole-time-of-flight (Q-TOF) mass spectrometer. Assay samples were aspirated under vacuum and loaded onto a C4 solid phase extraction (SPE) cartridge. After loading the C4 SPE was washed with 0.1% formic acid in water to remove non-volatile buffer salts and then peptide was eluted from the SPE with 85% acetonitrile, 15% water containing 0.1% formic acid onto the mass spectrometer. Peptide charge states were monitored in positive mode. Ion chromatogram data were extracted for the +2 charge state and peak area data integrated using RapidFire Integrator software (Agilent). % conversion of the CODD peptide substrate to the +16 hydroxylated peptide was calculated using the equation: % conversion=100×hydroxylated/(hydroxylated+non-hydroxylated peptide). IC50 values were determined from non-linear regression plots using GraphPad prism.
Example 158—Structure activity relationship (SAR) studies for PHD inhibition SAR studies for PHD inhibition were carried out on the compounds of the invention. Compounds were screened against PHD2 using the RF-MS hydroxylation assay.

[1] = test system: THP-1, MOLM13, OCI-AML3 and MV411 cells; experiment: Proliferation and apoptosis of human AML cell lines THP-1, MOLM13, OCI-AML3 and MV411; type: cell-based; details: 50 μM, single agent
Protocol: (A-B) Proliferation and apoptosis of human AML cell lines THP-1, MOLM13, OCI-AML3 and MV411 treated with vehicle control and 50 μM Molidustat (5). Data represent mean±SEM; **** p<0.0001.
(A-B) Proliferation and apoptosis of human AML cell lines MOLM-13, OCI-AML3, MV411 and THP-1 treated with vehicle control, 50 μM Daprodustat (2), 50 μM IOX5 (68, example 46), 0.1 μM Venetoclax (MOLM-13 and MV411), 0.01 μM Venetoclax (OCI-AML3 and THP-1) and combination therapy. (C-D) Early-([…]) and late stage (PI^+ Annexin^+) apoptosis of human AML patient samples treated with vehicle control, 50 μM Daprodustat (2), 50 μM IOX5 (68, example 46), 0.01 μM Venetoclax and combination therapy. Data represent mean±SEM; * p<0.05; ** p<0.01, *** p<0.001, **** p<0.0001.
(§1) Viable cells were counted by trypan blue exclusion at the indicated time points. To analyse cells undergoing apoptosis, cells were suspended in binding buffer containing PE-conjugated Annexin-V or FITC-conjugated Annexin-V, and either PI or DAPI.

[2] = test system: MV411 AML cells in NBSGW recipient mice; experiment: MV411 xenotransplantation in NBSGW mice, combination with Venetoclax; type: in vivo, mouse; details: 14 days treatment; IOX5 i.p. twice daily, Venetoclax o.g. once daily
Protocol: 14 days following transplantation, recipient mice were treated with IOX5 (68, example 46), Venetoclax or vehicle control. Dosing regimen consisted of 2× daily via i.p. injection (IOX5 (68, example 46) or vehicle) and/or 1× daily via o.g. (Venetoclax or vehicle). […] (E-G) Percentage of human CD45+CD33+CD14+ cells in the BM, spleen and liver, respectively (n=5). (H) Survival curve of mice treated with IOX5 (68, example 46), Venetoclax, IOX5 (68, example 46)+Venetoclax or vehicle control (n=6-7). (I-J) Proliferation and Annexin-V+DAPI+analyses, respectively, of THP-1 cells treated with Ven, IOX5, FIH inhibitor (FIHi; DM-NOFD), IOX5 (68, example 46)+FIHi, IOX5 (68, example 46)+Ven, FIHi+Ven, IOX5 (68, example 46)+FIHi+Ven or vehicle control (n=6). Statistical significance represented as in (A-B). Data represent mean±SEM; *p<0.05; ** p<0.01; *** p<0.001; **** p<0.0001.
100,000 THP-1 cells, 100,000 OCI-AM3 cells or 100,000 MV411 cells (for combination experiments) were tail vein injected into non-irradiated 10-to 12-week-old mixed gender NBSGW mice and began drug treatment 14 days after transplantation. […] Mice were culled 5 weeks after transplantation.
Mice in combination treatment experiments with Venetoclax (ABT-199) (MCE) were dosed once daily with 100 mg/kg via oral gavage (o.g.).
Further to findings in Example 170, the efficacy of IOX5 (68, example 46)+Venetoclax combination in vivo was investigated (FIG. 38D). MV411 AML cells were engrafted (with MLL-AF4 and FLT3-ITD mutation) and the recipient mice were treated with a vehicle, IOX5 (68, example 46), Venetoclax, and a combination of IOX5 (68, example 46)+Venetoclax.

human THP-1 cells = experiment: Proliferation and apoptosis of THP-1 cells; type: cell-based
Description: as §1
To determine consequences of Daprodustat (2) and IOX5 (68, example 46) treatment on AML cells driven by the MLL-AF9→MEIS1/HOXA9 axis, mouse iMLL-AF9-and Meis1Hoxa9-transformed AML cells were employed, as well as human THP-1 cells, which harbour the MIL-AF9 translocation. […] Thus, providing compelling evidence that PHD inhibition compromises AML cells driven by the MLL-AF9→MEIS1/HOXA9 axis.

[3] = target: KDM5B: lysine specific demethylase 5B (Homo sapiens (Human), UniProt Q9UGL1); experiment: KDM5B LCMS demethylation assay
Protocol: KDM5B enzyme reactions were performed under optimized buffer conditions (50 mM MES pH 7.0, 50 mM NaCl, 1 mM TCEP). […] The enzyme reaction was progressed for 30 minutes, and the reaction stopped by addition of formic acid to a final concentration of 1% (v/v). Control reactions included a 0.5% DMSO control and a reaction with a known inhibitor of KDM5B (10 mM KDOAM25, ^i).
(§2) 4 ml of enzyme reaction were injected and loaded onto a ZORBAX RRHD Eclipse Plus C18 column (Agilent Technologies, CA, US). Solvent A consisted of LCMS grade water containing 0.1% (v/v) formic acid and solvent B consisted of acetonitrile containing 0.1% (v/v) formic acid. […] The mass spectrometer was operated in the positive ion mode with a drying gas temperature of 280° C., drying gas flow rate of 13 L/min, nebulizer pressure of 40 psig, sheath gas temperature of 350° C., sheath gas flow rate of 12 L/min, capillary voltage of 4000 V, nozzle voltage of 1000 V. All acquired data were analyzed using Agilent MassHunter Qualitative Analysis (Version B.07.00) software.

[4] = target: KDM6B: lysine specific demethylase 6B (Homo sapiens (Human), UniProt O15054); experiment: KDM6B LCMS demethylation assay
Protocol: The peptide substrate for KDM5B was a 21-mer histone-H3 peptide (ARTK(me3)[sequence]), as synthesized by Peptide Protein Research (Hampshire, UK). The KDM6B peptide substrate was a 17-mer histone-H3 peptide ([sequence](me3)[sequence]), as synthesized by GL Biochem (Shanghai) Ltd (Shanghai, China).
KDM6B reactions were performed under optimized buffer conditions (50 mM MES pH 7.0). […] The enzyme reaction was progressed for 30 minutes and the reaction stopped by addition of formic acid to a final concentration of 1% (v/v). Control reactions included a 0.5% DMSO control and a reaction with a known inhibitor of KDM6B (10 mM GSKJ1,^j).
as §2

[5] = test system: other 2OG oxygenases (off-target sites commonly inhibited by existing PHD inhibitors); experiment: Selectivity versus other 2OG oxygenases / off-target sites (FIG. 14); type: biochemical
HIF1-α in HEK293 T cells = experiment: Immunoblots of HEK293 T cells; type: cell-based; details: HEK293 T cells, 0.5, 1, 5, 10, 20, 50 and 100 μM, 18 hours
Protocol: Cells were grown to 90% confluency.
Protocols for cell culture and immunoblotting were performed using the established methods.

[6] = target: KDM4A: lysine specific demethylase 4A (Homo sapiens (Human), UniProt O75164); experiment: KDM4A LCMS demethylation assay
Sequence of KDM4A: lysine specific demethylase 4A (O75164 1-359): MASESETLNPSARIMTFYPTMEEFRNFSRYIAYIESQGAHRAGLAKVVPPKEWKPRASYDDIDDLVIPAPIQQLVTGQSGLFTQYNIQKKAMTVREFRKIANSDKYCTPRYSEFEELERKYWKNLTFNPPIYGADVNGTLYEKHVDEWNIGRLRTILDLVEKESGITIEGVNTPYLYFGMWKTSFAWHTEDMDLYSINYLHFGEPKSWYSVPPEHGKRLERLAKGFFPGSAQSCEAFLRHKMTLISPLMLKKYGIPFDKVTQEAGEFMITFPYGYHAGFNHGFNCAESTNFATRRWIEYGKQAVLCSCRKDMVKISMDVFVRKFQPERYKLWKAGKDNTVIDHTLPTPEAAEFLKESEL
Protocol: as §2

Sequence of PHD2 (Q9GZT9 181-426): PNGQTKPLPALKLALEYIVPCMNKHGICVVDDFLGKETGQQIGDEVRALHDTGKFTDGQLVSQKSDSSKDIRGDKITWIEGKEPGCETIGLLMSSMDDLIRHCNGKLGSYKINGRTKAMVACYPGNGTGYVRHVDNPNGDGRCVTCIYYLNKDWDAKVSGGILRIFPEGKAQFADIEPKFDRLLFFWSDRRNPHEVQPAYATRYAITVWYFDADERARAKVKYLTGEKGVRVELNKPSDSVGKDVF
Sequence of KDM5B: lysine specific demethylase 5B (Q9UGL1 1-822): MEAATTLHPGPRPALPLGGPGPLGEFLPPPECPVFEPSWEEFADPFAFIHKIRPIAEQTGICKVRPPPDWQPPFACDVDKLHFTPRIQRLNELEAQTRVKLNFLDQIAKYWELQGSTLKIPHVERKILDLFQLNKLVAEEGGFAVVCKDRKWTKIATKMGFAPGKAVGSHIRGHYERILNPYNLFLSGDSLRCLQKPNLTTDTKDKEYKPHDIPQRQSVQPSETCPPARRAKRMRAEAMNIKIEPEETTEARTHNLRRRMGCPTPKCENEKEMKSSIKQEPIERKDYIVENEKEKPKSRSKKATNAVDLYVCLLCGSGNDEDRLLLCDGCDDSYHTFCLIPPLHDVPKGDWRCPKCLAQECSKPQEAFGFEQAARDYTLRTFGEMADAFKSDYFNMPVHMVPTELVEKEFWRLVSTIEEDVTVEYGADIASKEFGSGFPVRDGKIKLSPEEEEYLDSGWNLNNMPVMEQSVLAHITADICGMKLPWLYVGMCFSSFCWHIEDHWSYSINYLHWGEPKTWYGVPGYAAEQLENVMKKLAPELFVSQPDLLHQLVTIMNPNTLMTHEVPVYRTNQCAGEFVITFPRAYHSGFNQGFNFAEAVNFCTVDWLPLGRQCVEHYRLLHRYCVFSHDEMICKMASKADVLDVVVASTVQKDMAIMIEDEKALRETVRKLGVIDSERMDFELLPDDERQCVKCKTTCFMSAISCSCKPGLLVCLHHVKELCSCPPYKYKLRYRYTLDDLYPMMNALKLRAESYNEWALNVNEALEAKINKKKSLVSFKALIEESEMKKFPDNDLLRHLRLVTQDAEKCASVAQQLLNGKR
Sequence of KDM6B: lysine specific demethylase 6B (O15054 1141-1590): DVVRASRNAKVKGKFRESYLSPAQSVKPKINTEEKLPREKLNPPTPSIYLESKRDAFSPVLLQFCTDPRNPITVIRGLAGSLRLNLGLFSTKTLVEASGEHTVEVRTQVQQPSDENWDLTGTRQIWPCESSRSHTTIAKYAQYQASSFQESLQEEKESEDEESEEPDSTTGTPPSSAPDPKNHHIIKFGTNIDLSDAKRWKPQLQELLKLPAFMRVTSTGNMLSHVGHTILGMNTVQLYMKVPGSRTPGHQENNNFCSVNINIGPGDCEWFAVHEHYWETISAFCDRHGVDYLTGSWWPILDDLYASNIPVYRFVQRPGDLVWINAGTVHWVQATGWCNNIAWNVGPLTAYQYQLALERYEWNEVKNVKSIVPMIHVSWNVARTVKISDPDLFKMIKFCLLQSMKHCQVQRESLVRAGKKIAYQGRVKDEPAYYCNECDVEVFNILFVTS

Structure (SMILES): O=C(NCc1ccc(-c2ccccc2)cc1)c1cnc2c(cnc3ccnn32)c1O [Compound 117, N-([1,1′-Biphenyl]-4-ylmethyl)-6-hydroxypyrazolo[1,5-a]pyrido[3,2-e]pyrimidine-7-carboxamide]
- protein level of HIF1-α (immunoblot) (HIF1-α in Hep3B cells): increase HIF-1α
- IC50 (PHD2): 0.001 to 1 µM

Structure (SMILES): O=c1c(-n2ccnn2)c[nH]n1-c1cc(N2CCOCC2)ncn1 [molidustat]
- cell death (apoptosis) [1]: induced cell death
- proliferation [1]: reduced proliferation

Structure (SMILES): Cc1cc2nc(C)c3c(O)c(C(=O)NCc4ccc(-c5ccccc5)cc4)cnc3n2n1 [Compound 122, N-([1,1′-Biphenyl]-4-ylmethyl)-6-hydroxy-2,5-dimethylpyrazolo[1,5-a]pyrido[3,2-e]pyrimidine-7-carboxamide]
- protein level of HIF1-α (immunoblot) (HIF1-α in Hep3B cells): increase HIF-1α
- IC50 (PHD2): 0.001 to 1 µM

Structure (SMILES): CC1(C)CCC(CN2CCN(c3ccc(C(=O)NS(=O)(=O)c4ccc(NCC5CCOCC5)c([N+](=O)[O-])c4)c(Oc4cnc5[nH]ccc5c4)c3)CC2)=C(c2ccc(Cl)cc2)C1 [Venetoclax, venetoclax, reference compound]
- leukaemic burden [2]: decreased leukaemic burden
- survival of recipient mice [2]: extended survival of the recipient mice

Structure (SMILES): Cc1nc(C(=O)NCC(=O)O)c(O)c2ccc(Oc3ccccc3)cc12 [roxadustat]
- proliferation (human THP-1 cells; THP-1, 50 μM): strong anti-leukaemic activity

Structure (SMILES): O=C(NCC1CCC(C(F)(F)F)CC1)c1cnc(-n2cccn2)cc1O (centres unmarked) [Compound 68, 4-Hydroxy-6-(1H-pyrazol-1-yl)-N-((4-(trifluoromethyl)cyclohexyl)methyl) nicotinamide]
- IC50 [3]: > 100 µM
- IC50 [4]: > 100 µM
- IC50 for off-target sites [5]: very high IC50
- protein level of HIF1-α (immunoblot) (HIF1-α in HEK293 T cells): increase cellular HIF-1α
- IC50 [6]: > 100 µM

Structure (SMILES): COC(=O)C(=O)N[C@H](Cc1ccccc1)C(=O)OC [DM-NOFD, dimethyl N-oxalyl-D-phenylalanine]
- proliferation and survival (Annexin-V+DAPI+) of AML cells (human THP-1 cells; THP-1 cells, FIH inhibitor DM-NOFD alone or combined): no impact on proliferation and survival of AML cells

Structure (SMILES): O=C(Nc1ccc(-c2ccccc2)cc1)c1cnc2c(cnc3ccnn32)c1O [Compound 119, N-([1,1′-Biphenyl]-4-yl)-6-hydroxypyrazolo[1,5-a]pyrido[3,2-e]pyrimidine-7-carboxamide]
- protein level of HIF1-α (immunoblot) (HIF1-α in Hep3B cells): increase HIF-1α
- IC50 (PHD2): 0.001 to 1 µM

Structure (SMILES): Cc1cc2nc(C)c3c(O)c(C(=O)NCc4ccc(C(F)(F)F)cc4)cnc3n2n1 [Compound 123, 6-Hydroxy-2,5-Dimethyl-N-(4-(trifluoromethyl)benzyl) pyrazolo[1,5-a]pyrido[3,2-e]pyrimidine-7-carboxamide]
- protein level of HIF1-α (immunoblot) (HIF1-α in Hep3B cells): increase HIF-1α
- IC50 (PHD2): 0.001 to 1 µM

Structure (SMILES): O=C(NCc1ccc(C(F)(F)F)cc1)c1cnc(-n2cccn2)cc1O [Compound 64, 4-Hydroxy-6-(1H-pyrazol-1-yl)-N-(4-(trifluoromethyl)benzyl) nicotinamide]
- IC50 (PHD2): 0.001 to 1 µM

Structure (SMILES): O=C(NCc1ccc(-c2ccccc2)cc1)c1ccc(-n2cccn2)cc1O [Compound 16, N-([1,1′-biphenyl]-4-ylmethyl)-2-hydroxy-4-(1H-pyrazol-1-yl)benzamide]
- IC50 (PHD2): > 10 µM

Structure (SMILES): N#Cc1cnn(-c2cc(O)c(C(=O)NCc3ccc(C(F)(F)F)cc3)cn2)c1 [Compound 89, 6-(4-Cyano-1H-pyrazol-1-yl)-4-hydroxy-N-(4-(trifluoromethyl)benzyl) nicotinamide]
- IC50 (PHD2): 0.001 to 1 µM

Structure (SMILES): N#Cc1cnc(-n2cc(C(=O)NCc3ccc(-c4ccccc4)cc3)cn2)cc1O [Compound 95, N-([1,1′-Biphenyl]-4-ylmethyl)-1-(5-cyano-4-hydroxypyridin-2-yl)-1H-pyrazole-4-carboxamide]
- IC50 (PHD2): 0.001 to 1 µM
